Earlier results as cited in patent US20110305778A1, “Chemically Stabilized Anti-Dandruff Compositions For Use In Personal Care Compositions” (priority 2010, published 2011).

Conditions: value in parenthesis after each coordinating compound; no method given
For `O=CO` [Formic Acid], the “Log Zn Binding Constant” value is given as 0.6.
In the case of `O=C(O)CNCCNCC(=O)O` [EDDA], the “Log Zn Binding Constant” value is listed as 11.1.
For `O=C(O)CC(O)C(=O)O` (stereo not shown) [Malic Acid], the “Log Zn Binding Constant” value is listed as 2.9.
In the case of `O=C(O)C(O)C(=O)O` [Tatronic Acid], the “Log Zn Binding Constant” value is listed as 3.2.
In the case of `O=C(O)C[C@H](NCCN[C@@H](CC(=O)O)C(=O)O)C(=O)O` [EDDS], the “Log Zn Binding Constant” value is listed as 13.5.
In the case of `N[C@@H](CCC(=O)O)C(=O)O` [Glutamic Acid], the “Log Zn Binding Constant” value is listed as 4.5.
For `O=C(O)CN(CCN(CC(=O)O)CC(=O)O)CC(=O)O` [EDTA], the “Log Zn Binding Constant” value is given as 16.5.
For `CSCC[C@H](N)C(=O)O` [Methionine], the “Log Zn Binding Constant” value is given as 4.4.
In the case of `O=C(O)O` [Carbonic Acid], the “Log Zn Binding Constant” value is listed as 3.9.
In the case of `N[C@@H](CS)C(=O)O` [Cysteine], the “Log Zn Binding Constant” value is listed as 9.1.
For `CC(O)C(=O)O` (stereo not shown) [Lactic Acid], the “Log Zn Binding Constant” value is given as 1.9.
For `N[C@@H](CSSC[C@H](N)C(=O)O)C(=O)O` [Cystine], the “Log Zn Binding Constant” value is listed as 6.7.
In the case of `O=C(O)CC(O)(CC(=O)O)C(=O)O` [Citric Acid], the “Log Zn Binding Constant” value is listed as 4.8.
In the case of `O=S(=O)(O)O` [Sulfuric Acid], the “Log Zn Binding Constant” value is given as 0.9.
In the case of `O=C(O)CO` [Glycolic Acid], the “Log Zn Binding Constant” value is listed as 2.0.
For `N=C(N)NCCC[C@H](N)C(=O)O` [Arginine], the “Log Zn Binding Constant” value is listed as 4.2.
In the case of `NCC(=O)O` [Glycine], the “Log Zn Binding Constant” value is given as 5.0.
For `O=C(O)CC(=O)O` [Malonic Acid], the “Log Zn Binding Constant” value is listed as 2.9.
For `O=C(O)CCC(=O)O` [Succinic Acid], the “Log Zn Binding Constant” value is listed as 1.8.
For `N[C@@H](CC(=O)O)C(=O)O` [Aspartic Acid], the “Log Zn Binding Constant” value is given as 5.9.
For `OB(O)O` [Boric Acid], the “Log Zn Binding Constant” value is given as 0.9.
In the case of `O=C(O)CCCCC(=O)O` [Adipic Acid], the “Log Zn Binding Constant” value is listed as 2.6.
In the case of `CC(=O)O` [Acetic Acid], the “Log Zn Binding Constant” value is given as 1.0.
In the case of `Cc1cc(C2(c3cc(C)c(O)c(CN(CC(=O)O)CC(=O)O)c3)OS(=O)(=O)c3ccccc32)cc(CN(CC(=O)O)CC(=O)O)c1O` [Xylenol Orange], the “Log Zn Binding Constant” value is given as 10.3.
In the case of `O=C(O)c1ccccc1C(=O)O` [Phthalic Acid], the “Log Zn Binding Constant” value is given as 2.2.
In the case of `Cl` [Chloride], the “Log Zn Binding Constant” value is given as −0.3.
For `O=C(O)CN(CC(=O)O)CC(=O)O` [NTA], the “Log Zn Binding Constant” value is given as 10.7.
In the case of `O=P(O)(O)O` [Phosphoric Acid], the “Log Zn Binding Constant” value is listed as 2.4.
